Measured values reported in the NIST ThermoML archive (doi:10.1016/j.jct.2018.09.012).
Numbers after ± are expanded uncertainties.

Columns and labels:
[1] = Molar enthalpy of transition or fusion; settings: Crystal; DSC
[2] = for vapor or sublimation pressure: Gas chromatography; for Normal melting temperature: Crystal

CC1(C)CCC[C@]2(C)[C@H]3CCO[C@]3(C)CC[C@@H]12 [(-)-Ambroxide]
Settings	Molar enthalpy of transition or fusion [kcal/mol]
[1]	4.85 ± 0.191

[2]
Settings	vapor or sublimation pressure [kPa]
298.15 K, Metastable liquid	0.00012 ± 3e-05
310 K, Metastable liquid	0.00039 ± 0.00011
320 K, Metastable liquid	0.00096 ± 0.00025
330 K, Metastable liquid	0.0023 ± 0.0006
340 K, Metastable liquid	0.0049 ± 0.0012
350 K, Liquid	0.01 ± 0.002
360 K, Liquid	0.02 ± 0.004
370 K, Liquid	0.038 ± 0.007
380 K, Liquid	0.069 ± 0.012
390 K, Liquid	0.12 ± 0.018
400 K, Liquid	0.2 ± 0.026
410 K, Liquid	0.32 ± 0.039
420 K, Liquid	0.51 ± 0.057
430 K, Liquid	0.77 ± 0.086
440 K, Liquid	1.1 ± 0.13
450 K, Liquid	1.7 ± 0.2
460 K, Liquid	2.4 ± 0.24
470 K, Liquid	3.4 ± 0.34
480 K, Liquid	4.7 ± 0.47
490 K, Liquid	6.3 ± 0.63
500 K, Liquid	8.4 ± 0.84

[2]
Settings	Normal melting temperature [°C]
DTA	72.7 ± 1.3
visual observation	75.00 ± 3

CC1COCc2cc3c(cc21)C(C)(C)C(C)C3(C)C (stereo not drawn) [Galaxolide]
[2], Metastable liquid
Settings	vapor or sublimation pressure [kPa]
298.15 K	2.6e-05 ± 8e-06
310 K	9.9e-05 ± 2.9e-05
320 K	0.00027 ± 8e-05
330 K	0.00071 ± 0.00019
340 K	0.0017 ± 0.0004
350 K	0.0038 ± 0.0009
360 K	0.0081 ± 0.0018
370 K	0.016 ± 0.003
380 K	0.032 ± 0.006
390 K	0.058 ± 0.009
400 K	0.1 ± 0.014
410 K	0.16 ± 0.022
420 K	0.29 ± 0.035
430 K	0.46 ± 0.055
440 K	0.72 ± 0.088
450 K	1.1 ± 0.14
460 K	1.6 ± 0.16
470 K	2.4 ± 0.24
480 K	3.4 ± 0.34
490 K	4.8 ± 0.48
500 K	6.6 ± 0.66

c1ccc2c(c1)oc1ccccc12 [dibenzo[bd]furan]
[2]
Settings	vapor or sublimation pressure [kPa]
298.15 K, Metastable liquid	0.0011 ± 0.0001
310 K, Metastable liquid	0.0031 ± 0.0003
320 K, Metastable liquid	0.007 ± 0.0007
330 K, Metastable liquid	0.015 ± 0.002
340 K, Metastable liquid	0.03 ± 0.003
350 K, Metastable liquid	0.058 ± 0.006
360 K, Liquid	0.11 ± 0.011
370 K, Liquid	0.18 ± 0.018
380 K, Liquid	0.31 ± 0.031
390 K, Liquid	0.51 ± 0.051
400 K, Liquid	0.8 ± 0.08
410 K, Liquid	1.2 ± 0.12
420 K, Liquid	1.8 ± 0.18
430 K, Liquid	2.6 ± 0.26
440 K, Liquid	3.7 ± 0.37
450 K, Liquid	5.2 ± 0.52

c1ccc2ccccc2c1 [naphthalene]
Settings	Molar enthalpy of transition or fusion [kcal/mol]
[1]	4.57 ± 0.108

Settings	Normal melting temperature [°C]
[2], DTA	79.2 ± 1.4
